In experiment [1] the target is Voltage-dependent L-type calcium channel subunit alpha-1C (Rattus norvegicus, UniProt P22002). As to the kind of experiment: Inhibition of [3H]nitrendipine binding to [Ca2+] channel of rat heart.
The target of experiment [2] is Muscarinic acetylcholine receptor. Kind of experiment: Inhibitory activity against [3H]oxotremorine-M binding to muscarinic receptors in rat forebrain membrane. Format: cell membranes.
A further experiment deals with Glutamate NMDA receptor. Kind of experiment: Inhibitory activity against [3H]-CPP binding to NMDA receptor in rat cortex.
The target in experiment [3] is Kappa-type opioid receptor (Cavia porcellus, UniProt P41144). Kind of experiment: Inhibitory activity against [3H]bremazocine binding to kappa opioid receptor in guinea pig cerebellum. In kind it is tissue-based.
Experiment [4] has as its target T1, Adrenergic receptor alpha-2 (Rattus norvegicus, UniProt P22086+P19328+P22909).
T1 sequence (P22086 whole entry): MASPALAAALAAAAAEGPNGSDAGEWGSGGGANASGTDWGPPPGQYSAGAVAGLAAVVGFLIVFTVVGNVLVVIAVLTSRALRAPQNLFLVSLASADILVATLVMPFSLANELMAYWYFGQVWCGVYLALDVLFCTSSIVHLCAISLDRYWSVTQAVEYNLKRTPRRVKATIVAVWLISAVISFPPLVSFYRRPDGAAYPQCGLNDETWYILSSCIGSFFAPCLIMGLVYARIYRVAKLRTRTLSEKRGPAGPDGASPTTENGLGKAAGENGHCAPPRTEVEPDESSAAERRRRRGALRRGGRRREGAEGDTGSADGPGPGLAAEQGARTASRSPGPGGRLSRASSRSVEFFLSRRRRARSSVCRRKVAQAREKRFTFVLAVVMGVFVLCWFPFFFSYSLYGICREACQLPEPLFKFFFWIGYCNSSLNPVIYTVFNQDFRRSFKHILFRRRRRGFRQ
T1 sequence (P19328 whole entry): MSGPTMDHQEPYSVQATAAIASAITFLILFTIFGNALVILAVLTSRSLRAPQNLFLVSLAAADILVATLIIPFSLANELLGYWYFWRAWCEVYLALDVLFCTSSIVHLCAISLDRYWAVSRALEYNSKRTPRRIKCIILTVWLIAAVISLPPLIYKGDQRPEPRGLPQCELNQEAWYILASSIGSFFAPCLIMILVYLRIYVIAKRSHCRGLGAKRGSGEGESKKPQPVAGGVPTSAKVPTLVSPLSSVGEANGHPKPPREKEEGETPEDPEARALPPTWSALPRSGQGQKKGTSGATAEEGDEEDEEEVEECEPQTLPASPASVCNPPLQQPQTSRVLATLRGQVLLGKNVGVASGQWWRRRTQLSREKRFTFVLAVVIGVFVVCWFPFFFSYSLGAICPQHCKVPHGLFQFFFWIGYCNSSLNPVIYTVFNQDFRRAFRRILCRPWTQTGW
T1 sequence (P22909 whole entry): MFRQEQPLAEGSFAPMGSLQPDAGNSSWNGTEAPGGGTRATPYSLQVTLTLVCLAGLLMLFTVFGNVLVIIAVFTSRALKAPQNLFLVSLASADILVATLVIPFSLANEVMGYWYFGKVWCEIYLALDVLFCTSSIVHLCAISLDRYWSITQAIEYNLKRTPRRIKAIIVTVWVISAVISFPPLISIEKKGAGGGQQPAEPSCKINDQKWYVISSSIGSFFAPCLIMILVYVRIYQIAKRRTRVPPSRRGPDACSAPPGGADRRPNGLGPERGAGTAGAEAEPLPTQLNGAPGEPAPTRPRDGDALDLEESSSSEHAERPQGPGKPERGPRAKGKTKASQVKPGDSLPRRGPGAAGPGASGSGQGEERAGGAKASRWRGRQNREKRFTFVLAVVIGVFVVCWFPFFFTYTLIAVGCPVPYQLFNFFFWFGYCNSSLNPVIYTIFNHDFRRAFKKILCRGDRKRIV
As to the kind of experiment: Inhibitory activity against [3H]-idazoxan binding to Alpha-2 adrenergic receptor in rat cortex.

Experiment [5] concerns the target T1, Adrenergic receptor alpha-2. As to the kind of experiment: Inhibitory activity against [3H]idazoxan binding to Alpha-2 adrenergic receptor in rat cortex, in the presence of GPP.
The target of another experiment is T2, Acetylcholinesterase (Rattus norvegicus, UniProt P37136).
T2 sequence (P37136 whole entry): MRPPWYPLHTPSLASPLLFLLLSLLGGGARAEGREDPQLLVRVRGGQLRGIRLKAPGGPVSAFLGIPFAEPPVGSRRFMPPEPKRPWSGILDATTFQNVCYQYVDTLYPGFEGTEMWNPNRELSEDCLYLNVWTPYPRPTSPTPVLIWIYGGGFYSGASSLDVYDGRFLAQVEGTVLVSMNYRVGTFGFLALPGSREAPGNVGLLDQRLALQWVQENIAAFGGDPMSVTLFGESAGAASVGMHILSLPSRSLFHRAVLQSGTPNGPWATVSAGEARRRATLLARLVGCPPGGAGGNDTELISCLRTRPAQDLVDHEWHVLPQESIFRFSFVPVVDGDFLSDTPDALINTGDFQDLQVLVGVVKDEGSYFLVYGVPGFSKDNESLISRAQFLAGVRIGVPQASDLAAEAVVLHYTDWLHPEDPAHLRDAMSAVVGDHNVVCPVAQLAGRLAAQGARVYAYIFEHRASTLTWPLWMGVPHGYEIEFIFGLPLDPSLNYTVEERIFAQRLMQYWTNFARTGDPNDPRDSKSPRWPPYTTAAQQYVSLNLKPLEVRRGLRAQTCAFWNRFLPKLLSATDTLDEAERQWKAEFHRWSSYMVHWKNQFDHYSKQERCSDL
Kind of experiment: Inhibitory activity against Acetylcholinesterase in rat striatum. Format: tissue-based.

For a further experiment, the target named is D(1A) dopamine receptor (Rattus norvegicus, UniProt P18901). Kind of experiment: Inhibitory activity against [3H]SCH-23390 binding to Dopamine receptor D1 in rat striatum. In kind it is tissue-based.
The target of experiment [6] is T1, Adrenergic receptor alpha-2. As to the kind of experiment: Inhibitory activity against [3H]yohimbine binding to Alpha-2 adrenergic receptor in rat cortex.
For the next experiment, the species on record is Rattus norvegicus. As to the kind of experiment: Inhibitory activity against [3H]5-HT uptake in rat whole brain. In kind it is functional.
Experiment [7] addresses T3, 5-hydroxytryptamine receptor 1A (Rattus norvegicus, UniProt P19327).
T3 sequence (P19327 whole entry): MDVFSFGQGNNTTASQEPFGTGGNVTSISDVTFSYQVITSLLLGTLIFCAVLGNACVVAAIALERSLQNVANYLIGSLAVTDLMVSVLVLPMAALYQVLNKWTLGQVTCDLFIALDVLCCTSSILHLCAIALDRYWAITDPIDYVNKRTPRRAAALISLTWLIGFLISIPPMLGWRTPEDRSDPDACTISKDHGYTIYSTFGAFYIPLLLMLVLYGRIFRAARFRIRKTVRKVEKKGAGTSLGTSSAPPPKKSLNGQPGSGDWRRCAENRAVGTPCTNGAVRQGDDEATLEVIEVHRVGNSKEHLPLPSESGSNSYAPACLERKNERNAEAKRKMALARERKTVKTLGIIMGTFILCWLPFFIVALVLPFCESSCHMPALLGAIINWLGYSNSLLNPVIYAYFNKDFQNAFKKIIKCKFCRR
Kind of experiment: Inhibitory activity against [3H]DPAT binding to 5-HT1A receptor in rat hippocampus. Format: tissue-based.

The target of experiment [8] is Neuronal acetylcholine receptor. Kind of experiment: Inhibitory activity against [3H]-NMCC binding to nicotinic receptors in rat cortex.

1 compound from ChEMBL document CHEMBL1129670, “Synthesis and structure-activity relationships of N-propyl-N-(4-pyridinyl)-1H-indol-1-amine (besipirdine) and related analogs as potential therapeutic agents for Alzheimer's disease” (J Med Chem, 1996) can be followed below.

Molecules are shown by their SMILES.

Chain of Voltage-dependent L-type calcium channel subunit alpha-1C (P22002 whole entry): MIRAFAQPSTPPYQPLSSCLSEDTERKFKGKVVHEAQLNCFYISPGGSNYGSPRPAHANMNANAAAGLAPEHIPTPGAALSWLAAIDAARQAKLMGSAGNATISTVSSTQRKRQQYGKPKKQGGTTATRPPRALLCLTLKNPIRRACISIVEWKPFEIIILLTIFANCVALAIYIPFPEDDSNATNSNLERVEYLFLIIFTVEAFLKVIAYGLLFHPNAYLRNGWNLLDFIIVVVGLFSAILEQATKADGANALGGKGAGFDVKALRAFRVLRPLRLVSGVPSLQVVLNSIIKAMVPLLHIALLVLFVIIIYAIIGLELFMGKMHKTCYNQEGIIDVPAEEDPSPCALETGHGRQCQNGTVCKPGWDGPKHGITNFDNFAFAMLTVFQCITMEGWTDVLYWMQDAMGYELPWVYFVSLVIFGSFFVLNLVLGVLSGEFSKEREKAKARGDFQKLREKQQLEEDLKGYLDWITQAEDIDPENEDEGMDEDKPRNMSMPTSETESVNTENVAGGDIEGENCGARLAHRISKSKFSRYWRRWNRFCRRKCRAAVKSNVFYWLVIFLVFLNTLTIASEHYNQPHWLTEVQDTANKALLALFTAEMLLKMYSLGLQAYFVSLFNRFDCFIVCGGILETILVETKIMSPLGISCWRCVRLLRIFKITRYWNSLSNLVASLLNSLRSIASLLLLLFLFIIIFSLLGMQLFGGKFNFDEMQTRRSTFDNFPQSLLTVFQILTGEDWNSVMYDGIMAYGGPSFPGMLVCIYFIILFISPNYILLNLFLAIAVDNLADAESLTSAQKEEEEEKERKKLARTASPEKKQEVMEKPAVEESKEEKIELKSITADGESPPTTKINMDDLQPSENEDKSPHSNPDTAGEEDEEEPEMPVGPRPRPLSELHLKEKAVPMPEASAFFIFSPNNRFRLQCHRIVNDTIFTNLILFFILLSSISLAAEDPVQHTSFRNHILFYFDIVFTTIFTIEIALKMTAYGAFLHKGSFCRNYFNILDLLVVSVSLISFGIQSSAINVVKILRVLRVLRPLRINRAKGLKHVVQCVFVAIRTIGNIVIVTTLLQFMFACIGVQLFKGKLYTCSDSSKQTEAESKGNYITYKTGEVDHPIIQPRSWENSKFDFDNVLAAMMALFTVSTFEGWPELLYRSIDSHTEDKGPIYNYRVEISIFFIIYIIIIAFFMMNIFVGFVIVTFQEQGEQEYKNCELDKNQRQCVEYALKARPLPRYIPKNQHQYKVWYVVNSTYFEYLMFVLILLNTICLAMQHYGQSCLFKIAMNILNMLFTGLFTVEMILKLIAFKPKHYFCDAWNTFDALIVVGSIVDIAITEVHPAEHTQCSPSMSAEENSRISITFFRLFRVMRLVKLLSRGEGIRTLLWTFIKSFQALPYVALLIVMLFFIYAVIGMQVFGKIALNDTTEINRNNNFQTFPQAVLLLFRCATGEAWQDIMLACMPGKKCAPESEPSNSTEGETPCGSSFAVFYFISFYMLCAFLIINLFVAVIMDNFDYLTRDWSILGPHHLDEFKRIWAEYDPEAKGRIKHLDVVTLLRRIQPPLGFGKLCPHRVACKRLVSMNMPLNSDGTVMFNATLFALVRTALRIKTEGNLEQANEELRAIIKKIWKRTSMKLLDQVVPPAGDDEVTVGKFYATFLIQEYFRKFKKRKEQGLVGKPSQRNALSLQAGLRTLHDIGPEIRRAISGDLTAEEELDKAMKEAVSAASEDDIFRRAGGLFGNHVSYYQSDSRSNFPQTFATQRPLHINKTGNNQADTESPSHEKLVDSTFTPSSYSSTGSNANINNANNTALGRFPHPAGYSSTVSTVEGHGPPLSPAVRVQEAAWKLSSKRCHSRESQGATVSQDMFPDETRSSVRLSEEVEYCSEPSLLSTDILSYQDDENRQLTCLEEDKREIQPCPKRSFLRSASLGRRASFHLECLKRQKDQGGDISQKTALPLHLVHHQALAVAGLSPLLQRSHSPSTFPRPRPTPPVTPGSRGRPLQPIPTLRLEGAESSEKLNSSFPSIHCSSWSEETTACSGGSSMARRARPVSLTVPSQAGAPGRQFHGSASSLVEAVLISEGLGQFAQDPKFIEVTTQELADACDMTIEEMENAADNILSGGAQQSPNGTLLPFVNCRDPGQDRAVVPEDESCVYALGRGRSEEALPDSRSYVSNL
Chain of Kappa-type opioid receptor (P41144 whole entry): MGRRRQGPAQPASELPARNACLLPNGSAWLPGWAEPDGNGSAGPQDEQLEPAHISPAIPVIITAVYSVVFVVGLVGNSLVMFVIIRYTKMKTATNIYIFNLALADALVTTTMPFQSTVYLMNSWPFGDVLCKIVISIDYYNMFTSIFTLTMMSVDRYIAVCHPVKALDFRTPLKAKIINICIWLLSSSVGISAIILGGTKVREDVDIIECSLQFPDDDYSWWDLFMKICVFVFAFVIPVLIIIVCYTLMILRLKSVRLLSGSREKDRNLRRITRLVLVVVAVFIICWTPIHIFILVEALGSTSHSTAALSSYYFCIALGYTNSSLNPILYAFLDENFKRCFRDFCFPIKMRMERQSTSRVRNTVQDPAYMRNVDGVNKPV
Chain of D(1A) dopamine receptor (P18901 whole entry): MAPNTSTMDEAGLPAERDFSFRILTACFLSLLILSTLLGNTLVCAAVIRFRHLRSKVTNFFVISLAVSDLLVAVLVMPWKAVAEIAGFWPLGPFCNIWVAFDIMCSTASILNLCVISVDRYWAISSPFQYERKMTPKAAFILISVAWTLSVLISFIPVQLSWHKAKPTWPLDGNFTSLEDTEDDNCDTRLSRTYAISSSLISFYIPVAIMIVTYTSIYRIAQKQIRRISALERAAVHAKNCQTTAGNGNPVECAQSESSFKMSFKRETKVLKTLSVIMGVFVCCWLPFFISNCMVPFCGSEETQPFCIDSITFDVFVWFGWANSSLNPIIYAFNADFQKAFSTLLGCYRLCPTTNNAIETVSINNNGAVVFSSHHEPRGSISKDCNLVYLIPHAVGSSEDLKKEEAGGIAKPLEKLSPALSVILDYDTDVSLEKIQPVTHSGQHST

One may read the IC50 as the concentration needed to halve the response being measured. On to `CCCN(c1ccncc1)n1ccc2ccccc21` [BESIPIRDINE], for which the IC50 in [1] was more than 100 µM; in [2], 0.46 µM; at Glutamate NMDA receptor it was more than 20 µM; in experiment [3], more than 10 µM; in [4] it was 0.47 µM; in experiment [5], 0.14 µM. Also, the IC50 on Acetylcholinesterase was more than 100 µM; on D(1A) dopamine receptor it was more than 20 µM; in experiment [6], 0.25 µM; in the experiment listed under Rattus norvegicus it was 2.6 µM; in [7], less than 20 µM; in [8] it was more than 20 µM.
